According to patent publication US5691340A, “Benzopyran derivatives” (Adir et Compagnie, priority 1994, dated 1997):

Experiments:
[1] = tested on: man; details: in vivo; cited from earlier work
[2] = tested on: σ receptors; details: cited from earlier work
[3] = molecular target: σ receptor; test: In vitro binding to σ receptors ([3H]-DTG or [3H]-3-PPP); set-up: species or system calf; details: [3H]-DTG
Protocol: (§1) The products are tested on each receptor at 5 different concentrations (10^-5 M, 10^-6 M, 10^-7 M, 10^-8 M and 10^-9 M) in triplicate. When the binding coefficient IC50 (concentration of product which displaces 50% of the radioligand) is less than a concentration of 10^-6 M, the Ki is measured by using 12 concentrations of the product.
(§2) The receptors for which the affinity of the compounds of the invention was determined, the tissue chosen, the concentration used for determining the non-specific fraction and the radioligand used to label the receptor are shown in Table A.
10^-6 M Calf hippocampus

[4] = tested on: hypermotility induced by amphetamine; test: Antagonism of hypermotility induced by amphetamine; type: in vivo, NMRI-CERJ mice; details: 64 mg/kg, IP, mice; d-amphetamine 4 mg.kg^-1 IP
Protocol: This test was developed by Costall B., et al. (Brain Research, 1977, 123, 89-111).
Groups of 10 NMRI-CERJ mice are injected intraperitoneally (IP) with 4 mg.kg^-1 of d-amphetamine immediately after the compound to be tested (also injected by the IP route) and the mice are placed in an activity cage for 30 minutes.
The number of interruptions of photoelectric cells is recorded, as well as the stereotypical behavior.
The activity of the tested compounds is expressed as percentage of antagonism of the hyperactivity induced by amphetamine.

[5] = molecular target: T1, σ1 receptor (Cavia porcellus, UniProt Q60492); test: In vitro binding to σ1 receptors ([3H]-Pentazocine); set-up: species or system guinea pig
T1 construct: Guinea pig brain; from tissue; host or cells: guinea pig brain
Protocol: as §1, §2

[6] = molecular target: T2, σ2 receptor (Cavia porcellus, UniProt H0V073); test: In vitro binding to σ2 receptors ([3H]-DTG); set-up: species or system guinea pig
T2 construct: Guinea pig brain; from tissue; host or cells: guinea pig brain
T2 sequence (H0V073 1-176): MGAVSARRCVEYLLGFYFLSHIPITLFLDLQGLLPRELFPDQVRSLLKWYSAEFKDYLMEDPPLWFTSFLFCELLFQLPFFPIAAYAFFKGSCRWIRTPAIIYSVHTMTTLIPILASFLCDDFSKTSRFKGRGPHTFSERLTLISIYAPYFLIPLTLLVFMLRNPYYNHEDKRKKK
Protocol: as §1, §2

[7] = tested on: hyperactivity induced by N-allylnormetazocine; test: Antagonism of the hyperactivity induced by N-allylnormetazocine; type: in vivo; details: 32 mg.kg^-1, rats; N-allylnormetazocine 50 mg/kg subcutaneous
Protocol: This test was developed by Snyder S. H. et al. (J. Neuropsychiatry, 1989, 1,7-15).
Measurement of the hyperactivity induced by this product is therefore used as an alternative model for detecting the antipsychotic activity of the compounds which have an effect on σ receptors.
A group of 12 rats is treated with the compound to be tested before subcutaneous administration of 50 mg/kg of N-allylnormetazocine. 30 minutes later, the animals are placed in an activity cage for 30 minutes.
Haloperidol is used as reference compound.

T1 sequence (Q60492 whole entry): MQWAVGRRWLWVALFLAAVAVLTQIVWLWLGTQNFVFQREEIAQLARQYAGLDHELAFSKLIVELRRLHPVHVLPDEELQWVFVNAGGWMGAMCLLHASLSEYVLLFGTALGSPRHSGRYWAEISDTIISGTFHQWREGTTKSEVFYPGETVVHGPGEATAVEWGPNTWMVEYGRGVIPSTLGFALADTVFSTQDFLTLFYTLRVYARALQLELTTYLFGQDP

Row | SMILES | IC50 [3] [nM] | percentage of antagonism of the hyperactivity induced by amphetamine [4] [%] | further results
1 | C=CCN1CCC2(C)c3cc(O)ccc3CC1C2C (single isomer, unassigned) [N-Allylnormetazocine] |  |  | psychotic behavior in man [1]: induces psychotic behavior in man; agonism at σ receptors [2]: prototype agonist for σ receptors
2 | COc1ccc2c(CN3CCN(Cc4ccccc4)CC3)cc(=O)oc2c1 [Example 3, 1-[(7-METHOXY-2-OXOCHROM-3-EN-4-YL) METHYL]-4-BENZYLPIPERAZINE] | 1.3 |  | 
3 | c1ccc(CN2CCN(CC3Cc4ccccc4O3)CC2)cc1 (stereo not shown) [Example 4, 1-[(2,3-DIHYDROBENZOFUR-2-YL) METHYL]-4-BENZYLPIPERAZINE] | 7 | 61 | 
4 | Fc1ccc2c(c1)CC(CN1CCN(Cc3ccccc3)CC1)O2 (stereo not shown) [Example 1, 1-[(5-FLUORO-2,3-DIHYDROBENZOFUR-2-YL) METHYL]-4-BENZYLPIPERAZINE] | 9.1 | 43 | 
5 | CC(CN1CCN(Cc2ccccc2)CC1)Oc1ccccc1 (stereo not shown) [Example 9, 1-(2-PHENOXYPROPYL)-4-BENZYLPIPERAZINE] |  |  | IC50 [5]: 1.3 nM; IC50 [6]: 40 nM; antagonism of the hypermotility induced by N-allylnormetazocine [7]: 42%
